This is an account of results in ChEMBL document CHEMBL1629692, “Susceptibility of gram-negative pathogens isolated from patients with complicated intra-abdominal infections in the United States, 2007-2008: results of the Study for Monitoring Antimicrobial Resistance Trends (SMART)” (2010).

What all share (format): functional
For one assay, the system named is Enterobacter cloacae. Kind of assay: Antimicrobial activity against Enterobacter cloacae obtained from patient with complicated intra-abdominal infection assessed as percent susceptible isolates by agar dilution method in presence of beta-lactamase inhibitor Sulbactam. For orientation: In agar dilution, organisms are placed on agar that contains the substance at set levels.

Assay [1] deals with Stenotrophomonas maltophilia. Nature of the assay: Antimicrobial activity against Stenotrophomonas maltophilia assessed as percent susceptible isolates by agar dilution method in presence of beta-lactamase inhibitor Sulbactam.
Assay [2] has as its system Escherichia coli. Nature of the assay: Antimicrobial activity against Escherichia coli obtained from patient with complicated intra-abdominal infection assessed as percent susceptible isolates by agar dilution method in presence of beta-lactamase inhibitor Sulbactam.
The next assay concerns Proteus mirabilis. Kind of assay: Antimicrobial activity against extended-spectrum beta-lactamase-positive Proteus mirabilis assessed as percent susceptible isolates by agar dilution method in presence of beta-lactamase inhibitor Sulbactam.
Assay [3] concerns Escherichia coli. Nature of the assay: Antimicrobial activity against extended-Spectrum beta-lactamase-negative Escherichia coli obtained from patient with complicated intra-abdominal infection assessed as percent susceptible isolates by agar dilution method in presence of beta-lactamase inhibitor Sulbactam.
Assay [4] relates to Klebsiella pneumoniae. Kind of assay: Antimicrobial activity against extended-spectrum beta-lactamase-positive Klebsiella pneumoniae assessed as percent susceptible isolates by agar dilution method in presence of beta-lactamase inhibitor Sulbactam.
For a further assay, the system named is Klebsiella aerogenes. Nature of the assay: Antimicrobial activity against Enterobacter aerogenes obtained from patient with complicated intra-abdominal infection assessed as percent susceptible isolates by agar dilution method in presence of beta-lactamase inhibitor Sulbactam.
The subject of assay [5] is Klebsiella pneumoniae. Nature of the assay: Antimicrobial activity against Klebsiella pneumoniae assessed as percent susceptible isolates by agar dilution method in presence of beta-lactamase inhibitor Sulbactam.
The next assay has as its system Klebsiella oxytoca. Kind of assay: Antimicrobial activity against extended-spectrum beta-lactamase-positive Klebsiella oxytoca assessed as percent susceptible isolates by agar dilution method in presence of beta-lactamase inhibitor Sulbactam.
In another assay the test system is Serratia marcescens. Kind of assay: Antimicrobial activity against Serratia marcescens assessed as percent susceptible isolates by agar dilution method in presence of beta-lactamase inhibitor Sulbactam.
The test system of another assay is Acinetobacter sp. Kind of assay: Antimicrobial activity against Acinetobacter sp. assessed as percent susceptible isolates by agar dilution method in presence of beta-lactamase inhibitor Sulbactam.
For assay [6], the system named is Klebsiella pneumoniae. Kind of assay: Antimicrobial activity against extended-spectrum beta-lactamase-negative Klebsiella pneumoniae assessed as percent susceptible isolates by agar dilution method in presence of beta-lactamase inhibitor Sulbactam.
Another assay deals with Citrobacter freundii. Nature of the assay: Antimicrobial activity against Citrobacter freundii obtained from patient with complicated intra-abdominal infection assessed as percent susceptible isolates by agar dilution method in presence of beta-lactamase inhibitor Sulbactam.
The subject of assay [7] is Escherichia coli. Kind of assay: Antimicrobial activity against extended-spectrum beta-lactamase-positive Escherichia coli obtained from patient with complicated intra-abdominal infection assessed as percent susceptible isolates by agar dilution method in presence of beta-lactamase inhibitor Sulbactam.
The test system of the next assay is Pasteurella sp. Nature of the assay: Antimicrobial activity against Pasteurella sp. assessed as percent susceptible isolates by agar dilution method in presence of beta-lactamase inhibitor Sulbactam.
In a further assay the test system is Pseudomonas fluorescens. Nature of the assay: Antimicrobial activity against Pseudomonas fluorescens assessed as percent susceptible isolates by agar dilution method in presence of beta-lactamase inhibitor Sulbactam.

For the compound `CC1(C)S[C@@H]2[C@H](NC(=O)[C@H](N)c3ccccc3)C(=O)N2[C@H]1C(=O)O` [AMPICILLIN], the Activity turned out to be 17% in the assay on Enterobacter cloacae; 46% in assay [1]; 62% in the assay with Escherichia coli [2]; 97% with Proteus mirabilis; 64% in the assay with Escherichia coli [3]; 3% in the assay on Klebsiella pneumoniae [4]. In addition, the Activity was 21% in the assay on Klebsiella aerogenes; 69% in the assay on Klebsiella pneumoniae [5]; 57% in the assay on Klebsiella oxytoca; 13% in the assay on Serratia marcescens; 46% in the assay on Acinetobacter sp.; 83% in the assay on Klebsiella pneumoniae [6]. Besides, the Activity in the assay on Citrobacter freundii was determined as 61%; in the assay on Escherichia coli [7] it was 24%; in the assay on Pasteurella sp. it was 46%; in the assay on Pseudomonas fluorescens it was 46%.
